Results as given in PubChem BioAssay (NCI).
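Interpolation was linear, between the two tested concentrations surrounding the appropriate level; five concentrations were tested over 48 hours in 96-well plates. At the GI50, growth is halved. TGI marks complete inhibition of growth.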

Key:
Experiment in all cases: NCI tumour cell line growth inhibition, 48 h
CCRF-CEM leukemia = system: CCRF-CEM leukemia
NCI-H23 lung = system: NCI-H23 lung
UO-31 renal = system: UO-31 renal
SF-295 CNS = system: SF-295 CNS
U251 CNS = system: U251 CNS
A549 NSCLC = system: A549 NSCLC
HL-60(TB) leukemia = system: HL-60(TB) leukemia
HOP-92 NSCLC = system: HOP-92 NSCLC
NCI/ADR-RES ovarian = system: NCI/ADR-RES ovarian
MDA-MB-435 = system: MDA-MB-435

Row | SMILES | TGI (CCRF-CEM leukemia) [µM] | TGI (NCI-H23 lung) [µM] | TGI (UO-31 renal) [µM] | TGI (SF-295 CNS) [µM] | TGI (U251 CNS) [µM] | TGI (A549 NSCLC) [µM] | TGI (HL-60(TB) leukemia) [µM] | TGI (HOP-92 NSCLC) [µM] | TGI (NCI/ADR-RES ovarian) [µM] | TGI (MDA-MB-435) [µM] | GI50 (HOP-92 NSCLC) [µM] | GI50 (CCRF-CEM leukemia) [µM] | GI50 (NCI/ADR-RES ovarian) [µM] | GI50 (MDA-MB-435) [µM] | GI50 (NCI-H23 lung) [µM] | GI50 (SF-295 CNS) [µM] | GI50 (U251 CNS) [µM] | GI50 (A549 NSCLC) [µM]
1 | COc1ccc2c(c1OC)C(=O)C2 | > 100 | > 100 | > 100 | > 100 | > 100 | > 100 | > 100 |  |  |  |  |  |  |  |  |  |  | 
2 | COc1cc(/C=C/c2ccc(OC)c(OC)c2)oc(=O)c1 | > 250 | > 250 | > 250 | > 250 | > 250 | > 250 | > 184 | > 250 | > 250 |  |  |  |  |  |  |  |  | 
3 | Cc1ccc([N+](=O)[O-])cc1S(=O)(=O)Nc1ccc(C2=NN(S(=O)(=O)c3cc([N+](=O)[O-])ccc3C)C(c3cccs3)C2)cc1 (stereo not drawn) |  | 59.9 | > 100 | 69.2 | > 100 | > 100 | > 100 | > 100 | > 100 | > 100 |  |  |  |  |  |  |  | 
4 | O=C(N/N=C\c1ccc(Cl)cc1)Nc1ccc2ccccc2c1 | > 100 | > 100 | > 100 |  | 63.5 | > 100 |  | 77.7 | > 100 | > 100 |  |  |  |  |  |  |  | 
5 | O=C(O)c1ccc2c(O)c(O)ccc2c1 | > 31.6 | 50.5 | 41.4 | 33.5 | 45.6 | > 93.8 |  | > 84.3 | 55.3 | 34.7 |  |  |  |  |  |  |  | 
6 | COP(=O)(OC)C(N)Cc1c[nH]c2ccccc12 (stereo not drawn) |  | > 100 | > 100 | > 100 | > 100 | > 100 |  |  | > 100 | > 100 |  |  |  |  |  |  |  | 
7 | CC1[C@@]2(O[C@@H]3C=C4C5CCC6Cc7nc8c(nc7C[C@@]6(C)C5C[C@H](O)[C@@]4(C)[C@]13O)CC1CCc3c(cc4c5c3C(O)C[C@H]5[C@@H](C)C3(O4)OC(C)(C)CC3O)[C@]1(C)C8)O[C@@](C)(CO)C[C@@H]2O (stereo partly drawn) | > 3.72 |  | > 3.72 | 0.182 | 0.586 | > 3.72 | > 3.72 |  | > 3.72 |  |  |  |  |  |  |  |  | 
8 | CC1=C[P+](c2ccccc2)(c2ccccc2)c2ccccc2O1 |  | 24.1 | > 100 | 38.9 | > 100 | > 100 | 8.76 | 9.34 | > 100 | 12 |  |  |  |  |  |  |  | 
9 | COc1ccc(-c2cc(-c3ccc(C)cc3)n(C3OC(COC(C)=O)C(OC(C)=O)C(OC(C)=O)C3OC(C)=O)c(=S)c2C#N)cc1 (stereo not drawn) |  | > 100 | > 100 | > 100 | > 100 | > 100 | > 100 | > 100 | > 100 | > 100 |  |  |  |  |  |  |  | 
10 | N=c1oc2ccc3ccccc3c2cc1-c1nc2ccccc2c(=O)[nH]1 |  |  | 32.8 | > 100 | > 100 | 73.3 | > 100 | 41.9 | > 100 | > 100 |  |  |  |  |  |  |  | 
11 | O=C1/C(=C/c2cccc([N+](=O)[O-])c2)N=C(c2ccccc2)N1c1nc2ccc(Sc3ccccc3)cc2[nH]1 |  | > 100 | > 100 | > 100 | > 100 | > 100 |  | > 100 | > 100 | 37 |  |  |  |  |  |  |  | 
12 | O=[N+]([O-])c1ccc(C[P+]2(c3ccccc3)CCCCC2)cc1 (tested in a mixture with another compound) | > 100 | > 100 | > 100 | > 100 | > 100 | > 100 | > 100 |  |  |  |  |  |  |  |  |  |  | 
13 | O=C(Cn1c2ccc(Br)cc2c2nc3ccccc3nc21)NCc1ccccc1 | > 100 | > 100 | > 100 | > 100 | 69.7 | > 100 |  | 13.1 | > 100 | > 100 |  |  |  |  |  |  |  | 
14 | CCN(CC)Cc1cc(N=Nc2c(O)ccc3c(N=Nc4ccc(O)c(CN(CC)CC)c4)c(O)ccc23)ccc1O | > 53.3 | 12.7 | 6.96 | 20 | 15.5 | > 23.5 |  | 22.8 | 33 | 20.8 |  |  |  |  |  |  |  | 
15 | O=C(COc1cc(=O)oc2ccccc12)c1ccccc1 | > 100 | 65.2 |  | 87.4 | 34.1 | > 100 | > 100 | 33 |  |  |  |  |  |  |  |  |  | 
16 | Nc1cc(CO)cc(Nc2c3ccccc3nc3ccccc23)c1 | > 100 | 30.1 | 32.3 | 25.3 | 28.3 | 38.9 | > 100 |  | 35.8 | 32.6 |  |  |  |  |  |  |  | 
17 | COc1ccc(-c2cc(=O)c3c(O)c(O)c(OC)cc3o2)cc1O | > 100 | > 100 | > 100 | > 100 | > 100 | > 100 | > 100 | > 100 |  |  |  |  |  |  |  |  |  | 
18 | O=C(CC(C(=O)c1ccsc1)c1cccs1)c1ccccc1 (stereo not drawn) | > 100 | 93.3 | 76.3 | > 100 | > 100 | 54.8 | > 100 | > 100 |  | > 100 |  |  |  |  |  |  |  | 

Row | SMILES | TGI (CCRF-CEM leukemia) [µM] | TGI (NCI-H23 lung) [µM] | TGI (UO-31 renal) [µM] | TGI (SF-295 CNS) [µM] | TGI (U251 CNS) [µM] | TGI (A549 NSCLC) [µM] | TGI (HL-60(TB) leukemia) [µM] | TGI (HOP-92 NSCLC) [µM] | TGI (NCI/ADR-RES ovarian) [µM] | TGI (MDA-MB-435) [µM] | GI50 (HOP-92 NSCLC) [µM] | GI50 (CCRF-CEM leukemia) [µM] | GI50 (NCI/ADR-RES ovarian) [µM] | GI50 (MDA-MB-435) [µM] | GI50 (NCI-H23 lung) [µM] | GI50 (SF-295 CNS) [µM] | GI50 (U251 CNS) [µM] | GI50 (A549 NSCLC) [µM]
19 | CC(C#N)(NO)C(C)(C#N)NO (stereo not drawn) | > 100 | > 100 | > 100 |  | > 100 | > 100 | > 100 |  | > 100 | > 100 |  |  |  |  |  |  |  | 
20 | O=C1CCCC2=C1CC1=C(CCCC1=O)N2c1ccc(Cl)cc1 | > 100 | > 100 | > 100 | > 100 | > 100 | > 100 | > 100 |  | > 100 | > 100 |  |  |  |  |  |  |  | 
21 | COc1ccccc1/C=C1\C(=O)N(C(=O)Cc2ccccc2)N=C1C | > 100 | > 100 | > 100 | > 100 | > 100 | > 100 | > 100 |  |  |  |  |  |  |  |  |  |  | 
22 | CCC1(CC)C(=O)NC(=O)NC1=S | > 100 | > 100 | > 100 | > 100 | > 100 | > 100 | > 100 | > 100 |  |  |  |  |  |  |  |  |  | 
23 | COc1ccc(C2=C(OC(C)=O)c3cccn3-c3ccc(Cl)cc3S2)cc1 | > 10 | > 10 |  | > 10 |  | > 10 | 3.02 | 6.07 |  | 4.84 |  |  |  |  |  |  |  | 
24 | COc1ccc(-c2c(C#N)c(N)[nH]c(=S)c2C#N)cc1 |  | > 100 | > 100 | > 100 | > 100 | > 100 | 69.2 | > 100 | > 100 | 95.5 |  |  |  |  |  |  |  | 
25 | CN(C)N1C(=O)C(=O)N(c2cccc3ccccc23)C1=O | > 10 | > 10 | > 10 | > 10 | > 10 | > 10 | > 10 |  | > 10 | > 10 |  |  |  |  |  |  |  | 
26 | CC1=C(C)C(=O)OC(C(C)(O)C2(O)CC3OC34C3CC(O)C56OC5C=CC(=O)C6(C)C3CCC42C)C1 (stereo not drawn) | > 22.2 | 8.64 | 2.62 | 15.2 | 7.34 | 15.5 |  | 12 |  | 4.62 |  |  |  |  |  |  |  | 
27 | O=C1c2c(c3c4cc(F)ccc4oc3c3[nH]c4ccccc4c23)C(=O)N1O | > 100 | 8.45 |  | 9 | 13.4 | > 100 |  | 5.15 | > 100 | > 100 | 1.44 | 0.239 | 2.9 | 3.02 | 1.65 | 2.33 | 0.904 | 27.1
28 | O=C1OC(C(O)CO)C(C(O)CO)OC1=O (stereo not drawn) | > 10 | > 10 | > 10 | > 10 | > 10 | > 10 | > 10 |  | > 10 | > 10 |  |  |  |  |  |  |  | 
29 | CCC1(O)C(=O)OCc2c1cc1n(c2=O)Cc2cc3cc4c(cc3nc2-1)OCO4 (stereo not drawn) |  | < 0.0109 | 0.0512 | 0.198 | 0.183 | 0.259 | 0.479 | 0.6 | 0.0277 | 9.1 |  |  |  |  |  |  |  | 
30 | CN1C/C(=C\c2cccs2)C2=NN(c3ccccc3)C(c3cccs3)C2C1 (stereo not drawn) | 5.95 | > 100 | > 100 | > 80.3 | > 100 | > 100 | 4.45 |  | > 100 | 3.86 |  |  |  |  |  |  |  | 
31 | CCC1c2[nH]c3ccccc3c2C[C@H]2C(=O)NC(C)C(=O)N12 (stereo partly drawn) |  | > 100 | > 100 | > 100 | > 100 | > 100 | > 100 | > 100 | > 100 | > 100 |  |  |  |  |  |  |  | 
32 | Nc1nnc(N)n1N | > 100 | > 100 | > 100 | > 100 | > 100 | > 100 | > 100 | > 100 |  |  |  |  |  |  |  |  |  | 
33 | CCC(C)C(Nc1c2ccccc2nc2c(C(=O)NCCN(C)C)cccc12)C(=O)O (stereo not drawn) | > 100 | 79.3 | 81.5 | 40.9 | > 100 | > 100 |  | 61.1 | 77.6 | 41.9 |  |  |  |  |  |  |  | 
34 | CC1OC(NCCNCCNC2OC(C)C(O)C(O)C2O)C(O)C(O)C1O (stereo not drawn) |  | > 100 | > 100 | > 100 | > 100 | > 100 | > 100 | > 100 | > 100 |  |  |  |  |  |  |  |  | 
35 | O=C1C=C(NCCc2ccc(O)c([N+](=O)[O-])c2)C(=O)c2[nH]cnc21 |  | 45 | > 100 | 31.1 | > 100 | 93.4 | 47.8 |  | > 100 | 33.7 |  |  |  |  |  |  |  | 
